Measurements published in the supplement of paper PMC7029842.
Values after ≈ are worked out from the molar mass of the structure shown. ± gives the standard deviation of the averaged measurements.

What was measured:
Test in all cases: minimum inhibitory concentration (MIC)
Details in all cases: incubation time: 18 h
[1] = system: Burkholderia cepacia ISS isolate s22
[2] = system: Burkholderia cepacia ISS isolate s41
[3] = system: Burkholderia contaminans ISS isolate s56
[4] = system: Burkholderia cepacia ISS isolate s12
[5] = system: Burkholderia cepacia ISS isolate s18
[6] = system: Burkholderia cepacia ISS isolate s35
[7] = system: Burkholderia cepacia ISS isolate s28
[8] = system: Burkholderia cepacia ISS isolate s16
[9] = system: Burkholderia cepacia ISS isolate s20
[10] = system: Burkholderia cepacia ISS isolate s37
[11] = system: Burkholderia cepacia ISS isolate s9
[12] = system: Burkholderia cepacia ATCC25416
[13] = system: Burkholderia cepacia ISS isolate s15
[14] = system: Burkholderia cepacia ISS isolate s23
[15] = system: Burkholderia cepacia ISS isolate s24
[16] = system: Burkholderia contaminans ISS isolate s54
[17] = system: Burkholderia cepacia ISS isolate s33
[18] = system: Burkholderia cepacia ISS isolate s25
[19] = system: Burkholderia cepacia ISS isolate s39
[20] = system: Burkholderia contaminans ISS isolate s47
[21] = system: Burkholderia contaminans ISS isolate s53
[22] = system: Burkholderia cepacia ISS isolate s31
[23] = system: Burkholderia cepacia ISS isolate s57
[24] = system: Burkholderia cepacia ISS isolate s36
[25] = system: Burkholderia contaminans J2956
[26] = system: Burkholderia contaminans ISS isolate s52

Row | Structure (SMILES) | minimum inhibitory concentration [1] | minimum inhibitory concentration [2] | minimum inhibitory concentration [3] | minimum inhibitory concentration [4] | minimum inhibitory concentration [5] | minimum inhibitory concentration [6] | minimum inhibitory concentration [7] | minimum inhibitory concentration [8] | minimum inhibitory concentration [9] | minimum inhibitory concentration [10] | minimum inhibitory concentration [11] | minimum inhibitory concentration [12] | minimum inhibitory concentration [13] | minimum inhibitory concentration [14] | minimum inhibitory concentration [15] | minimum inhibitory concentration [16] | minimum inhibitory concentration [17] | minimum inhibitory concentration [18] | minimum inhibitory concentration [19] | minimum inhibitory concentration [20] | minimum inhibitory concentration [21] | minimum inhibitory concentration [22] | minimum inhibitory concentration [23] | minimum inhibitory concentration [24] | minimum inhibitory concentration [25] | minimum inhibitory concentration [26]
1 | CO/N=C(\C(=O)N[C@@H]1C(=O)N2C(C(=O)O)=C(COC(C)=O)CS[C@H]12)c1csc(N)n1 [cefotaxime] | 20.2 ± 9.2 µg/mL (≈ 44.3 µM) | 12.7 ± 14 µg/mL (≈ 27.9 µM) | > 64 µg/mL | 16 ± 12 µg/mL (≈ 35.1 µM) | 20.2 ± 9.2 µg/mL (≈ 44.3 µM) | 16 ± 12 µg/mL (≈ 35.1 µM) | 20.2 ± 9.2 µg/mL (≈ 44.3 µM) | 20.2 ± 9.2 µg/mL (≈ 44.3 µM) | 20.2 ± 9.2 µg/mL (≈ 44.3 µM) | 20.2 ± 9.2 µg/mL (≈ 44.3 µM) | 20.2 ± 9.2 µg/mL (≈ 44.3 µM) | 20.2 ± 9.2 µg/mL (≈ 44.3 µM) | 16 µg/mL (≈ 35.1 µM) | 20.2 ± 9.2 µg/mL (≈ 44.3 µM) | 20.2 ± 9.2 µg/mL (≈ 44.3 µM) | > 64 µg/mL | 20.2 ± 9.2 µg/mL (≈ 44.3 µM) | 12.7 ± 14 µg/mL (≈ 27.9 µM) | 12.7 ± 14 µg/mL (≈ 27.9 µM) | > 64 µg/mL | > 64 µg/mL | 25.4 ± 9.2 µg/mL (≈ 55.8 µM) | 11.3 ± 5.7 µg/mL (≈ 24.8 µM) | 16 ± 12 µg/mL (≈ 35.1 µM) | > 64 µg/mL | > 64 µg/mL
2 | CC(C)(O/N=C(\C(=O)N[C@@H]1C(=O)N2C(C(=O)[O-])=C(C[n+]3ccccc3)CS[C@H]12)c1csc(N)n1)C(=O)O [ceftazidime] | 4 µg/mL (≈ 7.32 µM) | 3.17 ± 1.1 µg/mL (≈ 5.81 µM) | 8 µg/mL (≈ 14.6 µM) | 4 µg/mL (≈ 7.32 µM) | 4 µg/mL (≈ 7.32 µM) | 3.17 ± 1.1 µg/mL (≈ 5.81 µM) | 4 µg/mL (≈ 7.32 µM) | 4 µg/mL (≈ 7.32 µM) | 4 µg/mL (≈ 7.32 µM) | 2 ± 2 µg/mL (≈ 3.66 µM) | 4 µg/mL (≈ 7.32 µM) | 12.7 ± 4.6 µg/mL (≈ 23.2 µM) | 4.58 ± 1.1 µg/mL (≈ 8.38 µM) | 4 µg/mL (≈ 7.32 µM) | 4 µg/mL (≈ 7.32 µM) | 8 µg/mL (≈ 14.6 µM) | 4 µg/mL (≈ 7.32 µM) | 4 µg/mL (≈ 7.32 µM) | 3.17 ± 1.1 µg/mL (≈ 5.81 µM) | 8 µg/mL (≈ 14.6 µM) | 8 µg/mL (≈ 14.6 µM) | 4 µg/mL (≈ 7.32 µM) | 3.17 ± 1.1 µg/mL (≈ 5.81 µM) | 4 µg/mL (≈ 7.32 µM) | 8 µg/mL (≈ 14.6 µM) | 8 µg/mL (≈ 14.6 µM)
3 | O=C(N[C@H](CO)[C@H](O)c1ccc([N+](=O)[O-])cc1)C(Cl)Cl [chloramphenicol] | 7.37 ± 12 µg/mL (≈ 22.8 µM) | 4 ± 3.1 µg/mL (≈ 12.4 µM) | 6.35 ± 2.3 µg/mL (≈ 19.7 µM) | 7.37 ± 4.2 µg/mL (≈ 22.8 µM) | 9.28 ± 2.6 µg/mL (≈ 28.7 µM) | 5.04 ± 2.3 µg/mL (≈ 15.6 µM) | 5.85 ± 4.9 µg/mL (≈ 18.1 µM) | 9.28 ± 2.6 µg/mL (≈ 28.7 µM) | 11.7 ± 9.8 µg/mL (≈ 36.2 µM) | 5.04 ± 3.5 µg/mL (≈ 15.6 µM) | 4.64 ± 5.6 µg/mL (≈ 14.4 µM) | 6.35 ± 2.3 µg/mL (≈ 19.7 µM) | 5.04 ± 2.3 µg/mL (≈ 15.6 µM) | – | 9.28 ± 11 µg/mL (≈ 28.7 µM) | 8 µg/mL (≈ 24.8 µM) | 5.04 ± 2.3 µg/mL (≈ 15.6 µM) | 5.85 ± 4.9 µg/mL (≈ 18.1 µM) | 4 ± 3.1 µg/mL (≈ 12.4 µM) | 5.04 ± 2.3 µg/mL (≈ 15.6 µM) | 8 µg/mL (≈ 24.8 µM) | 5.85 ± 4.9 µg/mL (≈ 18.1 µM) | 8 µg/mL (≈ 24.8 µM) | 8 ± 16 µg/mL (≈ 24.8 µM) | 8 µg/mL (≈ 24.8 µM) | 8 µg/mL (≈ 24.8 µM)
4 | C[C@H]1COc2c(N3CCN(C)CC3)c(F)cc3c(=O)c(C(=O)O)cn1c23 [levofloxacin] | 8 ± 6.1 µg/mL (≈ 22.1 µM) | – | 0.5 µg/mL (≈ 1.38 µM) | – | – | 1.59 ± 1.7 µg/mL (≈ 4.39 µM) | 10.1 ± 15 µg/mL (≈ 27.9 µM) | – | – | 1.26 ± 0.58 µg/mL (≈ 3.49 µM) | 6.35 ± 2.3 µg/mL (≈ 17.6 µM) | 0.63 ± 0.43 µg/mL (≈ 1.74 µM) | 1 µg/mL (≈ 2.77 µM) | 8 ± 6.1 µg/mL (≈ 22.1 µM) | 10.1 ± 15 µg/mL (≈ 27.9 µM) | 0.315 ± 0.14 µg/mL (≈ 0.872 µM) | 1 µg/mL (≈ 2.77 µM) | 6.35 ± 2.3 µg/mL (≈ 17.6 µM) | – | 0.5 µg/mL (≈ 1.38 µM) | 0.5 µg/mL (≈ 1.38 µM) | 8 ± 6.1 µg/mL (≈ 22.1 µM) | 0.63 ± 0.29 µg/mL (≈ 1.74 µM) | 1.26 ± 0.87 µg/mL (≈ 3.49 µM) | 0.5 µg/mL (≈ 1.38 µM) | 0.5 µg/mL (≈ 1.38 µM)
5 | C[C@@H](O)[C@H]1C(=O)N2C(C(=O)O)=C(S[C@@H]3CN[C@H](C(=O)N(C)C)C3)[C@H](C)[C@H]12 [meropenem] | 2 ± 1.5 µg/mL (≈ 5.22 µM) | – | 5.04 ± 2.3 µg/mL (≈ 13.1 µM) | 20.2 ± 9.2 µg/mL (≈ 52.6 µM) | 12.7 ± 14 µg/mL (≈ 33.1 µM) | 32 µg/mL (≈ 83.4 µM) | 25.4 ± 9.2 µg/mL (≈ 66.2 µM) | 10.1 ± 6.9 µg/mL (≈ 26.3 µM) | 12.7 ± 14 µg/mL (≈ 33.1 µM) | 32 µg/mL (≈ 83.4 µM) | 32 µg/mL (≈ 83.4 µM) | 16 ± 12 µg/mL (≈ 41.7 µM) | – | 20.2 ± 14 µg/mL (≈ 52.6 µM) | 20.2 ± 14 µg/mL (≈ 52.6 µM) | 4 µg/mL (≈ 10.4 µM) | – | 20.2 ± 9.2 µg/mL (≈ 52.6 µM) | – | 4 µg/mL (≈ 10.4 µM) | 4 µg/mL (≈ 10.4 µM) | 25.4 ± 9.2 µg/mL (≈ 66.2 µM) | 5.04 ± 2.3 µg/mL (≈ 13.1 µM) | – | 4 µg/mL (≈ 10.4 µM) | 4 µg/mL (≈ 10.4 µM)
6 | CN(C)c1ccc(O)c2c1C[C@H]1C[C@H]3[C@H](N(C)C)C(O)=C(C(N)=O)C(=O)[C@@]3(O)C(O)=C1C2=O [minocycline] | 6.35 ± 2.3 µg/mL (≈ 13.9 µM) | 8 ± 6.1 µg/mL (≈ 17.5 µM) | 2.52 ± 1.1 µg/mL (≈ 5.51 µM) | 3.17 ± 1.1 µg/mL (≈ 6.94 µM) | 6.35 ± 7 µg/mL (≈ 13.9 µM) | 8 µg/mL (≈ 17.5 µM) | 10.1 ± 15 µg/mL (≈ 22 µM) | 5.04 ± 3.5 µg/mL (≈ 11 µM) | 6.35 ± 7 µg/mL (≈ 13.9 µM) | 6.35 ± 2.3 µg/mL (≈ 13.9 µM) | 6.35 ± 6.9 µg/mL (≈ 13.9 µM) | 1.59 ± 0.58 µg/mL (≈ 3.47 µM) | 12.7 ± 4.6 µg/mL (≈ 27.8 µM) | 8 ± 6.1 µg/mL (≈ 17.5 µM) | 12.7 ± 14 µg/mL (≈ 27.8 µM) | 2 µg/mL (≈ 4.37 µM) | 12.7 ± 4.6 µg/mL (≈ 27.8 µM) | 8 ± 6.1 µg/mL (≈ 17.5 µM) | 6.35 ± 6.9 µg/mL (≈ 13.9 µM) | 3.17 ± 3.5 µg/mL (≈ 6.94 µM) | 2 µg/mL (≈ 4.37 µM) | 4 µg/mL (≈ 8.74 µM) | 2 µg/mL (≈ 4.37 µM) | 6.35 ± 6.9 µg/mL (≈ 13.9 µM) | 2 µg/mL (≈ 4.37 µM) | 2 µg/mL (≈ 4.37 µM)
7 | COc1cc(Cc2cnc(N)nc2N)cc(OC)c1OC.Cc1cc(NS(=O)(=O)c2ccc(N)cc2)no1 [trimethoprim/sulfamethoxazole] | 20.2 ± 9.2 µg/mL | 25.4 ± 9.2 µg/mL | 10.1 ± 4.6 µg/mL | 12.7 ± 4.6 µg/mL | 12.7 ± 14 µg/mL | 32 µg/mL | 25.4 ± 9.2 µg/mL | 20.2 ± 14 µg/mL | 25.4 ± 9.2 µg/mL | 32 µg/mL | – | 20.2 ± 9.2 µg/mL | 25.4 ± 9.2 µg/mL | 25.4 ± 9.2 µg/mL | – | 6.35 ± 2.3 µg/mL | 25.4 ± 9.2 µg/mL | 22.6 ± 11 µg/mL | 20.2 ± 9.2 µg/mL | 8 µg/mL | 8 µg/mL | 20.2 ± 9.2 µg/mL | 16 µg/mL | 32 µg/mL | 8 µg/mL | 6.35 ± 2.3 µg/mL
